Common to all, as to type: cell-based, mouse
Test [1] concerns neural precursor cells. Put plainly: Apoptosis of neural precursor cells (caspase3 staining). To be noted: ADT-OH 80 μmol/L. The method, then: The isolated primary neural precursor cells were cultured for 3-4 days, and the neurospheres were blown into individual cells. and inoculated in a 24-well cell culture plate lined with adhesive glass discs. The cells were grown in neural precursor cell culture medium supplemented with ADT-OH (80 μmol/L) or control solute DMSO for 3 days, respectively, and then stained with apoptosis-specific antibody caspase3. Images were collected under a fluorescence microscope, and • the rate of caspase3 positive cells to all DAPI-positive cells were statistically calculated.

Test [2] deals with neural precursor cells. As to the kind of experiment: Differentiation of neural precursor cells into astrocytes (GFAP immunofluorescence). The following applies: ADT-OH 80 μmol/L; 8 days in differentiation medium. From the text: (§1) • (1) Adult ICR mice (male:female 2:1) were allowed to mate randomly. At 8:00 every night, the male and female mice were co-caged. […] On day 14.5 of pregnancy of the mice, neural precursor cells were extracted.
(§2) C57BL/6J mice at day 14.5 of pregnancy were anesthetized with 4% chloral hydrate by intraperitoneal injection. The abdominal cavity of the pregnant mice was opened using sterile surgical scissors and surgical forceps, the uterus of the pregnant mice was opened and the fetal brain was taken out. […]
(§3) The cultured cells were fixed with 4% PFA for 15 min, and washed three times with 0.01 M PBS, and then immunofluorescence staining was performed with Tuj1, GFAP, MBP, and caspase3 antibodies. The plate was blocked with a DAPI-containing blocking agent (Vector Labs, H-1400), observed and photographed under a Zeiss fluorescence microscope. Tuj1-positive neurons GFAP-positive astrocytes, MBP-positive oligodendrocytes and DAPI-positive cells were counted using ImageJ and adobe photoshop, respectively. The rate of positive cells to all DAPI-positive cells was calculated. • (2) The cells were fixed with 4% PFA after 5 days of differentiation in the differentiation medium, and immunofluorescently stained with the neuron-specific antibody Tuj1. […]
The rate of GFAP positive cells to DAPI-positive cells was statistically calculated.

Test [3] has as its system neural precursor cells. Put plainly: Differentiation of neural precursor cells into neurons (Tuj1 immunofluorescence) and axonal length. The following applies: ADT-OH 80 μmol/L; 5 days in differentiation medium.
From the text: as §1
C57BL/6J mice at day 14.5 of pregnancy were anesthetized with 4% chloral hydrate by intraperitoneal injection. The abdominal cavity of the pregnant mice was opened using sterile surgical scissors and surgical forceps, the uterus of the pregnant mice was opened and the fetal brain was taken out. The fetal brain tissue in the subventricular zone was isolated under a stereomicroscope, digested with 0.05% trypsin in a water bath at 37° C. for 10 min, and then terminated with a neural precursor cell culture medium (containing DMEM-F12 medium 39.2 ml, 1×B27 800 ul, 0.2 mg/ml bEGF 4 ul, and 0.2 mg/ml FGF 8 ul), and then gently blown into individual cells. The cells were centrifuged at 700 rcf for 5 min and the supernatant was discarded. The neural precursor cell culture medium was added, and the cells were inoculated and cultured in a 24-well cell culture plate. […]
The cultured cells were fixed with 4% PFA for 15 min, and washed three times with 0.01 M PBS, and then immunofluorescence staining was performed with Tuj1, GFAP, MBP, and caspase3 antibodies. The plate was blocked with a DAPI-containing blocking agent (Vector Labs, H-1400), observed and photographed under a Zeiss fluorescence microscope. Tuj1-positive neurons GFAP-positive astrocytes, MBP-positive oligodendrocytes and DAPI-positive cells were counted using ImageJ and adobe photoshop, respectively. The rate of positive cells to all DAPI-positive cells was calculated. • (2) The cells were fixed with 4% PFA after 5 days of differentiation in the differentiation medium, and immunofluorescently stained with the neuron-specific antibody Tuj1. After staining, images were collected under a fluorescence microscope, and the rates of neurons to all DAPI-positive cells in each group were statistically calculated.

Test [4] relates to neural precursor cells. As to the kind of experiment: Differentiation of neural precursor cells into oligodendrocytes (MBP immunofluorescence). To be noted: ADT-OH 80 μmol/L; 5 days in differentiation medium.
From the text: as §1, §2, §3
The rate of MBP positive cells to all DAPI-positive cells was statistically calculated.

Data on one molecule can be found in patent US12478608B2, “Use of slow-releasing hydrogen sulfide organic donor ADT-OH in the preparation of drugs for treating nervous system diseases” (SOOCHOW UNIVERSITY, priority 2021, dated 2025).

As for `Oc1ccc(-c2cc(=S)ss2)cc1` [ADT-OH, 5-(p-hydroxyphenyl)-1,2-dithione-3-thione], the “apoptosis, reduction compared with the DMSO control group” value in test [1] (3 days) was 44.8%. In test [1] (3 days in neural precursor cell culture medium), the “apoptotic cells (caspase3 positive cells to all DAPI-positive cells) compared with the DMSO control group” value is “fewer cells are apoptotic”. In test [2], the “differentiation into astrocytes (GFAP positive cells to DAPI-positive cells) compared with the DMSO control group” value is “fewer cells in the ADT-OH group are differentiated into astrocytes” and the “rate of differentiation into astrocytes, reduction compared with the DMSO control group” value is given as 69.2%. Besides, in test [3], the “axons of neurons (axonal length) compared with the DMSO control group” value is listed as “longer axons”; the “differentiation into neurons (Tuj1-positive cells to all DAPI-positive cells) compared with the DMSO control group” value is reported as “more cells are differentiated into neurons”; the “rate of differentiation into neurons, increase compared with the DMSO control group” value is 57.69%. Also, in test [4], the “differentiation into oligodendrocytes (MBP positive cells to all DAPI-positive cells) compared with the DMSO control group” value was “more cells are differentiated into oligodendrocytes” and the “rate of differentiation into oligodendrocytes, increase compared with the DMSO control group” value is reported as 87.5%.
